Reference: patent publication US20050032187A1, “Novel peptide-forming enzyme, microbe producing the enzyme and method for producing peptide using them” (Ajinomoto Co., Inc., priority 2003, published 2005)
Residues, ends and D or L forms follow the SMILES beside them.

Tested on: enzyme (SP-Sepharose HP fraction) derived from Sphingobacterium sp. strain FERM BP-8124
Assay: not given
Assay type: biochemical
Conditions: Table 15-2; carboxy 100 mM, L-Gln 150 mM, 0.33 units, pH 9.0, 25° C., 1.5 hours; 0.1% Tween-80 with L-Tyr-OMe
Experimental: The following procedure after centrifugal separation was carried out either on ice or at 4° C. Sphingobacterium sp. strain FERM BP-8124 (Depositary institution: National Institute for Advanced Industrial Science and Technology, International Patent Organism Depositary, Address of depositary institution: Chuo Dai-6,1-1 Higashi 1-Chome, Tsukuba-shi, Ibaraki-ken, Japan, International deposit date: Jul. 22, 2002) was cultured in the same manner as Example 21, and the microbial cells were collected by centrifugal separation (10,000 rpm, 15 minutes). After washing 2 g of microbial cells with 20 mM Tris-HCl buffer (pH 7.6), they were suspended in 8 ml of the same buffer and subjected to ultrasonic crushing treatment for 45 minutes at 195 W. This ultrasonic crushing liquid was then centrifuged (10,000 rpm, 30 minutes) to remove the crushed cell fragments and obtain an ultrasonic crushing liquid supernatant. This ultrasonic crushing liquid supernatant was dialyzed overnight against 20 mM Tris-HCl buffer (pH 7.6) followed by removal of the insoluble fraction by ultracentrifugation (50,000 rpm, 30 minutes) to obtain a soluble fraction in the form of the supernatant liquid. The resulting soluble fraction was applied to a Q-Sepharose HP column (manufactured by Amersham) pre-equilibrated with Tris-HCl buffer (pH 7.6), and the active fraction was collected from the non-adsorbed fraction. This active fraction was dialyzed overnight against 20 mM acetate buffer (pH 5.0) followed by removal of the insoluble fraction by centrifugal separation (10,000 rpm, 30 minutes) to obtain a dialyzed fraction in the form of the supernatant liquid. This dialyzed fraction was then applied to an SP-Sepharose HP column (manufactured by Amersham) pre-equilibrated with 20 mM acetate buffer (pH 5.0) to obtain the active fraction in which enzyme was eluted at a linear concentration gradient of the same buffer containing 0 tol M NaCl.
Substrate specificity was examined for enzyme derived from Sphingobacterium sp. strain FERM BP-8124 (Depositary institution: National Institute for Advanced Industrial Science and Technology, International Patent Organism Depositary, Address of depositary institution: Central. 6, 1-1-1 Higashi, Tsukuba City, Ibaraki Prefecture, Japan, International deposit date: Jul. 22, 2002). 100 μl of 100 mM borate buffer (pH 9.0) containing the various carboxy components at a final concentration of 100 mM and the various amine components at a final concentration of 150 mM shown in Tables 15-1 to 15-4, the SP-Sepharose HP fraction enzyme purified in Example 22 (addition of 0.33 units in the reaction liquid) and 10 mM EDTA were allowed to react at 25° C. for 1.5 hours.
In addition, hydrochlorides were used for all carboxy components. […]

Molecule	Produced peptide
NCC(=O)N[C@@H](CCC(N)=O)C(=O)O [Gly-L-Gln] (H-Gly-Gln-OH)	61.1 mM
NC(=O)CC[C@H](NC(=O)[C@@H](N)CCCN=C(N)N)C(=O)O [L-Arg-L-Gln] (H-Arg-Gln-OH)	17.2 mM
NC(=O)CC[C@H](NC(=O)[C@@H](N)CCC(N)=O)C(=O)O [L-Gln-L-Gln] (H-Gln-Gln-OH)	0.1 mM
CC[C@H](C)[C@H](N)C(=O)N[C@@H](CCC(N)=O)C(=O)O [L-Ile-L-Gln] (H-Ile-Gln-OH)	6.4 mM
CSCC[C@H](N)C(=O)N[C@@H](CCC(N)=O)C(=O)O [L-Met-L-Gln] (H-Met-Gln-OH)	32.6 mM
NC(=O)CC[C@H](NC(=O)[C@@H](N)Cc1ccccc1)C(=O)O [L-Phe-L-Gln]	0.8 mM
NC(=O)CC[C@H](NC(=O)[C@@H]1CCCN1)C(=O)O [L-Pro-L-Gln] (H-Pro-Gln-OH)	1.8 mM
NC(=O)CC[C@H](NC(=O)[C@@H](N)CO)C(=O)O [L-Ser-L-Gln] (H-Ser-Gln-OH)	12.9 mM
C[C@@H](O)[C@H](N)C(=O)N[C@@H](CCC(N)=O)C(=O)O [L-Thr-L-Gln] (H-Thr-Gln-OH)	36.1 mM
NC(=O)CC[C@H](NC(=O)[C@@H](N)Cc1ccc(O)cc1)C(=O)O [L-Tyr-L-Gln] (H-Tyr-Gln-OH)	0.6 mM
CC(C)[C@H](N)C(=O)N[C@@H](CCC(N)=O)C(=O)O [L-Val-L-Gln] (H-Val-Gln-OH)	8.2 mM
NC(=O)CC[C@H](NC(=O)[C@@H](N)CC(=O)O)C(=O)O [α-L-Asp-L-Gln] (H-Asp-Gln-OH)	0.05 mM

Tested on: Empedobacter brevis strain FERM BP-8113 microbial cells
Assay: Production of peptide using microbial cells of Empedobacter brevis
Assay type: cell-based
Conditions: 1 mL of 100 g/L cell suspension + 1 mL buffer with 200 mM carboxy component (HCl salt) and 400 mM amino acid, 10 mM EDTA, pH 9.0, 18° C., 2 hours
Experimental: Although the following provides a more detailed explanation of the present invention through its examples, the present invention is not limited to these examples. In addition to confirmation by ninhydrin coloring of thin-film chromatograms (qualitative), quantitative determinations were made by the following high-performance liquid chromatography in order to assay products. Column: […] ODS-2 (manufactured by GL Science, Inc.), eluate: aqueous phosphate solution containing 5.0 mM sodium 1-octanesulfonate (pH 2.1): methanol=100: 15 to 50, flow rate: 1.0 mL/min, detection: 210 nanometers (hereinafter, “nm”). A 50 mL medium (pH 6.2) containing 5 grams (hereinafter, “g”) of glucose, 5 g of ammonium sulfate, 1 g of monopotassium phosphate, 3 g of dipotassium phosphate, 0.5 g of magnesium sulfate, 10 g of yeast extract and 10 g of peptone in 1 liter (hereinafter, “L”) was transferred to a 500 mL Sakaguchi flask and sterilized at 115° C. for 15 minutes. This medium was then inoculated with one loopful of the culture broth of Empedobacter brevis strain FERM BP-8113 (Depositary institution: National Institute for Advanced Industrial Science and Technology, International Patent Organism Depositary, Address of depositary institution: Chuo Dai-6,1-1 Higashi 1-Chome, Tsukuba-shi, Ibaraki-ken, Japan, International deposit transfer date: Jul. 8, 2002) that had been cultured at 30° C. for 16 hours in the same medium, followed by shake culturing at 30° C. for 16 hours and 120 strokes/min.

Molecule	Formed peptide
NCC(=O)N[C@@H](Cc1cnc[nH]1)C(=O)O [Gly-L-His] (H-Gly-His-OH)	22.1 mM
C[C@H](N)C(=O)N[C@@H](CCCN=C(N)N)C(=O)O [L-Ala-L-Arg] (H-Ala-Arg-OH)	72.1 mM
C[C@H](N)C(=O)N[C@@H](CCC(N)=O)C(=O)O [L-Ala-L-Gln, L-alanyl-L-glutamine] (H-Ala-Gln-OH)	68.0 mM
C[C@H](N)C(=O)N[C@@H](Cc1cnc[nH]1)C(=O)O [L-Ala-L-His] (H-Ala-His-OH)	52.1 mM
CC(C)C[C@H](NC(=O)[C@H](C)N)C(=O)O [L-Ala-L-Leu] (H-Ala-Leu-OH)	38.2 mM
CSCC[C@H](NC(=O)[C@H](C)N)C(=O)O [L-Ala-L-Met] (H-Ala-Met-OH)	68.3 mM
C[C@H](N)C(=O)N[C@@H](Cc1ccccc1)C(=O)O [L-Ala-L-Phe]	62.4 mM
C[C@H](N)C(=O)N[C@@H](CO)C(=O)O [L-Ala-L-Ser] (H-Ala-Ser-OH)	51.3 mM
CC[C@H](C)[C@H](N)C(=O)N[C@@H](CCSC)C(=O)O [L-Ile-L-Met] (H-Ile-Met-OH)	8.3 mM
CSCC[C@H](N)C(=O)N[C@@H](Cc1ccccc1)C(=O)O [L-Met-L-Phe] (H-Met-Phe-OH)	28.5 mM
N[C@@H](CO)C(=O)N[C@@H](CO)C(=O)O [L-Ser-L-Ser] (H-Ser-Ser-OH)	29.0 mM
CC(C)C[C@H](NC(=O)[C@@H](N)[C@@H](C)O)C(=O)O [L-Thr-L-Leu] (H-Thr-Leu-OH)	23.0 mM
CSCC[C@H](NC(=O)[C@@H](N)C(C)C)C(=O)O [L-Val-L-Met] (H-Val-Met-OH)	10.5 mM

Tested on: not listed separately
Assay: Comparison of ability to catalyze peptide production with known enzymes
Conditions: 100 mM L-alanine methyl ester, 200 mM L-glutamine, pH 9.0, 25° C.; amount of enzyme added as in Table 14
Experimental: The peptide formation ability of the present enzyme was compared with that of known enzymes. Carboxypeptidase Y described in EP 278787A1 and the thiol endopeptidases (ficin, papain, bromelain and chymopapain) described in EP 359399B1 were used for the known enzymes, and they were used in the form of purified enzymes manufactured by Sigma. […] The reaction was carried out by adding enzyme to 100 μl of borate buffer (pH 9.0) containing 100 mM L-alanine methyl ester and 200 mM L-glutamine and allowing to react at 25° C.
Furthermore, enzyme dissolved in 10 mM acetate buffer (pH 5.0) containing 1 mM EDTA was used for the carboxypeptidase, while enzyme dissolved in 10 mM acetate buffer (pH 5.0) containing 2 mM EDTA, 0.1 M KCl and 5 mM dithiothreitol was used for the thiol endopeptidase.

Molecule	L-Ala-L-Gln production rate (mM/mm)
Bromelain	0.0062 mM/mm
Chymopapain: thiol endopeptidase described in EP 359399B1, purified enzyme manufactured by Sigma	0.0100 mM/mm
Ficin	0.0096 mM/mm
Papain: thiol endopeptidase described in EP 359399B1, purified enzyme manufactured by Sigma (protein, UniProt P00784 134-345, looked up) Papain: IPEYVDWRQKGAVTPVKNQGSCGSCWAFSAVVTIEGIIKIRTGNLNEYSEQELLDCDRRSYGCNGGYPWSALQLVAQYGIHYRNTYPYEGVQRYCRSREKGPYAAKTDGVRQVQPYNEGALLYSIANQPVSVVLEAAGKDFQLYRGGIFVGPCGNKVDHAVAAVGYGPNYILIKNSWGTGWGENGYIRIKRGTGNSYGVCGLYTSSFYPVKN	0.0106 mM/mm
Carboxypeptidase Y: known enzyme described in EP 278787A1, purified enzyme manufactured by Sigma (protein, UniProt P00729 112-532, looked up) Carboxypeptidase Y: KIKDPKILGIDPNVTQYTGYLDVEDEDKHFFFWTFESRNDPAKDPVILWLNGGPGCSSLTGLFFELGPSSIGPDLKPIGNPYSWNSNATVIFLDQPVNVGFSYSGSSGVSNTVAAGKDVYNFLELFFDQFPEYVNKGQDFHIAGESYAGHYIPVFASEILSHKDRNFNLTSVLIGNGLTDPLTQYNYYEPMACGEGGEPSVLPSEECSAMEDSLERCLGLIESCYDSQSVWSCVPATIYCNNAQLAPYQRTGRNVYDIRKDCEGGNLCYPTLQDIDDYLNQDYVKEAVGAEVDHYESCNFDINRNFLFAGDWMKPYHTAVTDLLNQDLPILVYAGDKDFICNWLGNKAWTDVLPWKYDEEFASQKVRNWTASITDEVAGEVKSYKHFTYLRVFNGGHMVPFDVPENALSMVNEWIHGGFSL	0.0257 mM/mm

Tested on: Sphingobacterium sp. strain FERM BP-8124 microbial cells
Assay: Production of L-alanyl-L-glutamine using microbial cells of Sphingobacterium sp.
Assay type: cell-based
Conditions: 0.1 mL of 100 g/L cell suspension + 0.1 mL buffer with 200 mM L-alanyl methyl ester hydrochloride and 400 mM L-glutamine, pH 9.0, 25° C., 120 minutes
Experimental: A 50 ml medium (pH 7.0) containing 5 g of glucose, 5 g of ammonium sulfate, 1 g of monopotassium phosphate, 3 g of dipotassium phosphate, 0.5 g of magnesium sulfate, 10 g of yeast extract and 10 g of peptone in 1 L was transferred to a 500 mL Sakaguchi flask and sterilized at 115° C. for 15 minutes for culturing Sphingobacterium sp. strain FERM BP-8124 (Depositary institution: National Institute for Advanced Industrial Science and Technology, International Patent Organism Depositary, Address of depositary institution: Chuo Dai-6,1-1 Higashi 1-Chome, Tsukuba-shi, Ibaraki-ken, Japan, International deposit date: Jul. 22, 2002). This medium was then inoculated with one loopful of Sphingobacterium sp. strain FERM BP-8124 (Depositary institution: National Institute for Advanced Industrial Science and Technology, International Patent Organism Depositary, Address of depositary institution: Chuo Dai-6,1-1 Higashi 1-Chome, Tsukuba-shi, Ibaraki-ken, Japan, International deposit date: Jul. 22, 2002) cultured at 30° C. for 24 hours in a slant agar medium (agar: 20 g/L, pH 7.0) containing 5 g of glucose, 10 g of yeast extract, 10 g of peptone and 5 g of NaCl in 1 L, followed by shake culturing at 30° C. for 20 hours and 120 strokes/minute. A 1 ml aliquot of this culture broth was then added to the aforementioned medium (50 ml/500 mL Sakaguchi flask) and cultured at 30° C. for 18 hours. […]

Molecule	amount of L-alanyl-L-glutamine produced
C[C@H](N)C(=O)N[C@@H](CCC(N)=O)C(=O)O [L-Ala-L-Gln, L-alanyl-L-glutamine] (H-Ala-Gln-OH)	62 mM
